Key:
Assay type in all cases: binding
Conditions in all cases: 9-mer peptides displayed on landscape phage
dog oocyte ZP = experiment: Landscape phage library selection on dog oocytes with intact zona pellucida
Excerpt: Using a strategy similar to the strategy of Examples 2 and 5, 9-mer peptides that bind to dog oocyte ZP were identified using a landscape phage library. In this library, foreign (non-phage) 9-mer peptides are expressed in each pVIII copy over the phage surface resulting in thousands of peptide copies per phage particle. […] Sequences of the identified peptides are DDLNSFVND (SEQ ID NO:47); ADLAAFYDD (SEQ ID NO:48); EPGGMVGSD (SEQ ID NO:49); DGVYLVGDD (SEQ ID NO:50); DWSGQDVEN (SEQ ID NO:51); and GMVGSGYDS (SEQ ID NO:52).

cat oocyte ZP = experiment: Landscape phage library selection on cat oocytes with intact zona pellucida
Excerpt: Using a strategy similar to the strategy of Examples 2, 5, and 7, 9-mer peptides that bind to cat oocyte ZP were identified using a landscape phage library. In this library, foreign (non-phage) 9-mer peptides are expressed in each pVIII copy over the phage surface resulting in thousands of peptide copies per phage particle. […] Sequences of the identified peptides are AGSSYTQDS (SEQ ID NO:53); EVNGGSADS (SEQ ID NO:54); EAYPGLDWD (SEQ ID NO:55); and VKSEDPSLN (SEQ ID NO:56).

pig oocyte ZP = experiment: Landscape phage library selection on pig oocytes with intact zona pellucida, after negative selection on cat, dog and cow oocytes
Description: Using a strategy similar to the strategy of Example 2, 9-mer peptides that bind specifically to pig oocyte ZP were identified using a landscape phage library. In this library, foreign (non-phage) 9-mer peptides are expressed in each pVIII copy over the phage surface resulting in thousands of peptide copies per phage particle. […] Prior to phage display library selection on pig oocytes, negative selection steps on cat, dog and cow oocytes were performed. Sequences of the identified peptides are DPGLSLGDD (SEQ ID NO:41); AYNLGEGDT (SEQ ID NO:42); GQQGLNGDS (SEQ ID NO:43); DVGGGTGTE (SEQ ID NO:44); GPNSSDADS (SEQ ID NO:45); and GEGGYGSHD (SEQ ID NO:46).

Sequence	binding to dog ZP (dog oocyte ZP)	binding to pig ZP (pig oocyte ZP)	further results
ADLAAFYDD (Phage library random peptide insert) [SEQ ID NO:48]	specifically recognize and bind to dog ZP	–	–
AGSSYTQDS (Phage library random peptide insert) [SEQ ID NO:53]	–	–	binding to cat ZP (cat oocyte ZP): specifically recognize and bind to cat ZP
AYNLGEGDT (Phage library random peptide insert) [SEQ ID NO:42]	–	specifically recognize and bind to pig ZP	–
DDLNSFVND (Phage library random peptide insert) [SEQ ID NO:47]	specifically recognize and bind to dog ZP	–	–
DGVYLVGDD (Phage library random peptide insert) [SEQ ID NO:50]	specifically recognize and bind to dog ZP	–	–
DPGLSLGDD (Phage library random peptide insert) [SEQ ID NO:41]	–	specifically recognize and bind to pig ZP	–
DVGGGTGTE (Phage library random peptide insert) [SEQ ID NO:44]	–	specifically recognize and bind to pig ZP	–
DWSGQDVEN (Phage library random peptide insert) [SEQ ID NO:51]	specifically recognize and bind to dog ZP	–	–
EAYPGLDWD (Phage library random peptide insert) [SEQ ID NO:55]	–	–	binding to cat ZP (cat oocyte ZP): specifically recognize and bind to cat ZP
EPGGMVGSD (Phage library random peptide insert) [SEQ ID NO:49]	specifically recognize and bind to dog ZP	–	–
EVNGGSADS (Phage library random peptide insert) [SEQ ID NO:54]	–	–	binding to cat ZP (cat oocyte ZP): specifically recognize and bind to cat ZP
GEGGYGSHD (Phage library random peptide insert) [SEQ ID NO:46]	–	specifically recognize and bind to pig ZP	–
GMVGSGYDS (Phage library random peptide insert) [SEQ ID NO:52]	specifically recognize and bind to dog ZP	–	–
GPNSSDADS (Phage library random peptide insert) [SEQ ID NO:45]	–	specifically recognize and bind to pig ZP	–
GQQGLNGDS (Phage library random peptide insert) [SEQ ID NO:43]	–	specifically recognize and bind to pig ZP	–
VKSEDPSLN (Phage library random peptide insert) [SEQ ID NO:56]	–	–	binding to cat ZP (cat oocyte ZP): specifically recognize and bind to cat ZP
